Assays:
[1] = tested on: Beet Armyworm (BAW) (Spodoptera exigua); test: Bioassay on beet armyworm (BAW), 128-well diet tray assay; type: in vivo; conditions: Spodoptera exigua; beet armyworm, 50 μg/cm^2; read-out: % Mortality BAW 50 μg/cm^2
[2] = tested on: Green Peach Aphid (GPA) (Myzus persicae); test: Bioassay on green peach aphid (GPA), foliar spray on cabbage seedlings; type: in vivo; conditions: green peach aphid, 200 ppm, read-out: % Mortality GPA 200 ppm
In short: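 Cabbage seedlings (2-3 true leaves), each infested a day earlier with 20-50 wingless adult and nymph GPA, were sprayed on both leaf sides to runoff, four pots per treatment. Corrected % control was calculated against solvent-check plants.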

[3] = tested on: Corn Earworm (CEW) (Helicoverpa zea); test: Bioassay on corn earworm (CEW), 128-well diet tray assay; type: in vivo; conditions: Helicoverpa zea; corn earworm, 50 μg/cm^2; read-out: % Mortality CEW 50 μg/cm^2
In short: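 Larvae in a 128-well diet tray were held at 25° C under 14:10 light-dark for five to seven days. Percent mortality was scored per well and averaged over eight wells, then reported on a rating scale.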

SMILES | mortality at 50 µg/cm2 [1] [%] | mortality at 200 ppm [2] [%] | mortality at 50 µg/cm2 [3] [%] | melting point [°C]
CC(C)=Cc1ccccc1N1CCCS/C1=N\N=C\c1ccc(-c2ncn(-c3ccc(OC(F)(F)F)cc3)n2)cc1 [Compound 197C] | 50 to 100 | 0 | 50 to 100 | 
Cc1cccnc1N1CCCS/C1=N\N=C\c1ccc(-c2ncn(-c3ccc(OC(F)(F)F)cc3)n2)cc1 [Compound 198C] | 50 to 100 | 0 | 50 to 100 | 
COc1ccc(N2CCCS/C2=N\N=C\c2ccc(-c3ncn(-c4ccc(OC(F)(F)F)cc4)n3)cc2)cc1 [Compound 202C] | 50 to 100 | 0 to 80 | 50 to 100 | 
Cc1cc(Br)cc(C)c1N1CCCS/C1=N\N=C\c1ccc(-c2ncn(-c3ccc(OC(F)(F)F)cc3)n2)cc1 [Compound 203C] | 50 to 100 | 0 to 80 | 50 to 100 | 
COc1ccc(C)cc1N1CCCS/C1=N\N=C\c1ccc(-c2ncn(-c3ccc(OC(F)(F)F)cc3)n2)cc1 [Compound 204C] | 50 to 100 | 0 to 80 | 50 to 100 | 
Cc1ncccc1N1CCCS/C1=N\N=C\c1ccc(-c2ncn(-c3ccc(OC(F)(F)F)cc3)n2)cc1 [Compound 205C] | 50 to 100 | 0 to 80 | 50 to 100 | 
COc1cccc(N2CCCS/C2=N\N=C\c2ccc(-c3ncn(-c4ccc(OC(F)(F)F)cc4)n3)cc2)c1 [Compound 206C] | 50 to 100 | 0 | 50 to 100 | 
CCOc1ccccc1N1CCCS/C1=N\N=C\c1ccc(-c2ncn(-c3ccc(OC(F)(F)F)cc3)n2)cc1 [Compound 208C] | 50 to 100 | 0 | 50 to 100 | 
Cc1cccc(C)c1N1CCCCS/C1=N\N=C\c1ccc(-c2ncn(-c3ccc(OC(F)(F)F)cc3)n2)cc1 [Compound 211C] | 50 to 100 | 0 | 50 to 100 | 
CC(C)c1ccccc1N1CCCCS/C1=N\N=C\c1ccc(-c2ncn(-c3ccc(OC(F)(F)F)cc3)n2)cc1 [Compound 212C] | 50 to 100 | 0 | 50 to 100 | 
CCc1cccc(C)c1N1/C(=N/N=C/c2ccc(-c3ncn(-c4ccc(OC(F)(F)F)cc4)n3)cc2)SCCC1C (stereo not drawn) [Compound 213C] | 50 to 100 | 0 to 80 | 50 to 100 | 
CC(C)c1ccccc1N1C(=O)CCS/C1=N\N=C\c1ccc(-c2ncn(-c3ccc(OC(F)(F)F)cc3)n2)cc1 [Compound 224C] | 50 to 100 | 0 to 80 | 50 to 100 | 
CC1(O)CS/C(=N\N=C\c2ccc(-c3ncn(-c4ccc(OC(F)(F)F)cc4)n3)cc2)N1c1c(F)cccc1F (stereo not drawn) [Compound 240C] | 50 to 100 | 0 | 50 to 100 | 
CC(C)c1ccccc1N1/C(=N/N=C/c2ccc(-c3ncn(-c4ccc(OC(F)(F)F)cc4)n3)cc2)SCC1(C)O (stereo not drawn) [Compound 242C] | 50 to 100 | 0 to 80 | 50 to 100 | 
CCC(C)c1ccccc1N1/C(=N/N=C/c2ccc(-c3ncn(-c4ccc(OC(F)(F)F)cc4)n3)cc2)SCC1(C)O (stereo not drawn) [Compound 243C] | 50 to 100 | 0 to 80 | 50 to 100 | 
Cc1cccc(Cl)c1N1/C(=N/N=C/c2ccc(-c3ncn(-c4ccc(OC(F)(F)F)cc4)n3)cc2)SCC1(C)O (stereo not drawn) [Compound 244C] | 50 to 100 | 0 | 50 to 100 | 
COc1ccc(N2/C(=N/N=C/c3ccc(-c4ncn(-c5ccc(OC(F)(F)F)cc5)n4)cc3)SCC2(C)O)c(C)c1 (stereo not drawn) [Compound 245C] | 50 to 100 | 0 to 80 | 50 to 100 | 
Cc1ccccc1N1/C(=N/N=C/c2ccc(-c3ncn(-c4ccc(OC(F)(F)F)cc4)n3)cc2)SCC1(C)O (stereo not drawn) [Compound 248C] | 50 to 100 | 0 to 80 | 50 to 100 | 

SMILES | mortality at 50 µg/cm2 [1] [%] | mortality at 200 ppm [2] [%] | mortality at 50 µg/cm2 [3] [%] | melting point [°C]
CC(C)c1cccc(F)c1N1/C(=N/N=C/c2ccc(-c3ncn(-c4ccc(OC(F)(F)F)cc4)n3)cc2)SCC1(C)O (stereo not drawn) [Compound 250C] | 50 to 100 | 0 to 80 | 50 to 100 | 
Cc1ccc(N2/C(=N/N=C/c3ccc(-c4ncn(-c5ccc(OC(F)(F)F)cc5)n4)cc3)SCC2(C)O)c(C(C)C)c1 (stereo not drawn) [Compound 251C] | 50 to 100 | 0 to 80 | 50 to 100 | 
Cc1ccc(C(C)C)c(N2/C(=N/N=C/c3ccc(-c4ncn(-c5ccc(OC(F)(F)F)cc5)n4)cc3)SCC2(C)O)c1 (stereo not drawn) [Compound 253C] | 50 to 100 | 0 | 50 to 100 | 
CCc1ccccc1N1/C(=N/N=C/c2ccc(-c3ncn(-c4ccc(OC(F)(F)F)cc4)n3)cc2)SCC1(C)O (stereo not drawn) [Compound 254C] | 50 to 100 | 0 to 80 | 50 to 100 | 
COc1cc(C)c(N2/C(=N/N=C/c3ccc(-c4ncn(-c5ccc(OC(F)(F)F)cc5)n4)cc3)SCC2(C)O)c(C)c1 (stereo not drawn) [Compound 255C] | 50 to 100 | 0 | 50 to 100 | 
CCCc1ccccc1N1/C(=N/N=C/c2ccc(-c3ncn(-c4ccc(OC(F)(F)F)cc4)n3)cc2)SCC1(C)O (stereo not drawn) [Compound 256C] | 50 to 100 | 0 to 80 | 50 to 100 | 
CC(C)c1ccccc1N1/C(=N/N=C/c2ccc(-c3ncn(-c4ccc(OC(F)(F)F)cc4)n3)cc2)SC(C)C1(C)O (stereo not drawn) [Compound 257C] | 50 to 100 | 0 | 50 to 100 | 
CC(C)c1cc(F)c(F)cc1N1/C(=N/N=C/c2ccc(-c3ncn(-c4ccc(OC(F)(F)F)cc4)n3)cc2)SCC1(C)O (stereo not drawn) [Compound 259C] | 50 to 100 | 0 | 50 to 100 | 
CC(C)c1ccccc1N1/C(=N/N=C/c2ccc(-c3ncn(-c4ccc(C(F)(C(F)(F)F)C(F)(F)F)cc4)n3)cc2)SCC1(C)O (stereo not drawn) [Compound 260C] | 50 to 100 | 0 | 50 to 100 | 
CC(C)c1ccccc1N1/C(=N/N=C/c2ccc(-c3ncn(-c4ccc(C(F)(F)F)cc4)n3)cc2)SCC1(C)O (stereo not drawn) [Compound 261C] | 50 to 100 | 0 | 50 to 100 | 
CC(C)c1ccccc1N1/C(=N/N=C/c2ccc(-c3ncn(-c4ccc(OC(F)(F)C(F)(F)F)cc4)n3)cc2)SCC1(C)O (stereo not drawn) [Compound 262C] | 50 to 100 | 0 to 80 | 50 to 100 | 
CC(C)c1ccccc1N1/C(=N/N=C/c2ccc(-c3ncn(-c4ccc(OC(F)(F)F)cc4)n3)cc2)SCC1(O)c1ccccc1C(F)(F)F (stereo not drawn) [Compound 263C] | 50 to 100 | 0 to 80 | 50 to 100 | 
FC(F)(F)Oc1ccc(-n2cnc(-c3ccc(/C=N/NC(=S)Nc4ccccc4C4CCCC4)cc3)n2)cc1 [Compound I-35] |  |  |  | 213 to 216
Cc1cccc(NC(=S)N/N=C/c2ccc(-c3ncn(-c4ccc(OC(F)(F)F)cc4)n3)cc2)c1C(C)C [Compound I-43] |  |  |  | 219 to 222
Cc1ccc(C(C)C)c(NC(=S)NN)c1 [Compound I-46] |  |  |  | 167 to 169
CC(C)c1cc(F)ccc1NC(=S)NN [Compound I-50] |  |  |  | 163 to 167
CC(C)c1cc(F)c(F)cc1NC(=S)NN [Compound I-54] |  |  |  | 169 to 170
CC(C)c1cc(F)c(F)cc1NC(=S)N/N=C/c1ccc(-c2ncn(-c3ccc(OC(F)(F)F)cc3)n2)cc1 [Compound I-55] |  |  |  | 217 to 221

— patent publication US8916183B2, “Pesticidal compositions and processes related thereto” (priority 2012, dated 2014)
